Test results taken from patent US5389616A, “Amino acid derivatives” (Hoffman-LaRoche Inc., priority 1988, dated 1995).
pIC50: −log10 of the molar value.

Target: T1, human renin (Homo sapiens, UniProt P00797)
T1 sequence (P00797 67-406): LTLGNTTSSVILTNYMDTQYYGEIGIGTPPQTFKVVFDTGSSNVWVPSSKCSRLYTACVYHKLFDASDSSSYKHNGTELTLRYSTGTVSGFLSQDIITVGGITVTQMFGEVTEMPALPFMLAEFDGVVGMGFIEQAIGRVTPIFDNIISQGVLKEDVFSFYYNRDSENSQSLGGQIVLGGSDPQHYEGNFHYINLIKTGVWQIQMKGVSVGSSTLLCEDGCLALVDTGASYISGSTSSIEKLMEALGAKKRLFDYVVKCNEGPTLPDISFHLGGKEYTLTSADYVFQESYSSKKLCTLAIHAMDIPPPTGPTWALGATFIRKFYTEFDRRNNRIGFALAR
Experiment: In vitro test with pure human renin
Type: biochemical
Conditions: human tetradecapeptide renin substrate (hTD), pH 7.4, incubated 3 hours at 37° C. or 4° C., angiotensin I production measured via RIA
Experimental: In vitro test with pure human renin
The test is carried out in Eppendorf test tubes. The incubation mixture consists of (1) 100μl of human renin in buffer A (0.1M sodium phosphate solution, pH 7.4, containing 0.1% bovine serum albumin, 0.1% sodium azide and 1 mM ethylenediaminetetraacetic acid), sufficient for a renin activity of 2--3 ng of angiotensin I/ml/hr.; (2) 145 μl of buffer A; (3) 30 μl of 10 μM human tetradecapeptide renin substrate (hTD) in 10 mM hydrochloric acid; (4) 15 μl of dimethyl sulphoxide with or without inhibitor and (5) 10 μl of a 0.03 molar solution of hydroxyquinoline sulphate in water.
The samples are incubated for 3 hours at 37° C. or 4° C. in triplicate. 2 ×100 μl samples per experimental test tube are used in order to measure the production of angiotensin I via RIA (standard radioimmunoassay; clinical assay solid phase kit). Cross reactivities of the antibody used in the RIA are: angiotensin I 100%; angiotensin II 0.0013%; hTD (angiotensin I-Val-Ile-His-Ser-OH) 0.09%. The production of angiotensin I is determined by the difference between the experiment at 37° C. and that at 4° C.
The following controls are carried out:
(a) Incubation of hTD samples without renin and without inhibitor at 37° C. and 4° C. The difference between these two values gives the base value of angiotensin I production.
(b) Incubation of hTD samples with renin, but without inhibitor at 37° C. and 4° C. The difference between these values gives the maximal-value of angiotensin I production.
In each sample the base value of the angiotensin I production is subtracted from the angiotensin I production which is determined. The difference between the maximal value and the base value gives the value of the maximal substrate hydrolysis (=100%) by renin.
The results are given as IC50 values which denote that concentration of the inhibitor at which the enzymatic activity is inhibited by 50%. The IC50 values are determined from a linear regression curve from a logit-log plot.

| Compound | pIC50 |
| --- | --- |
| CC(C)(C)C(O)[C@H](O)[C@H](CC1CCCCC1)NC(=O)[C@H](Cc1c[nH]cn1)NC(=O)[C@H](Cc1ccccc1)CS(=O)(=O)C(C)(C)C (mixture of isomers) [F, (S)-α-[(S)-α-[(t-butylsulphonyl)methyl]hydrocinnamamido]-N-[(1S,2R,3RS)-1-(cyclohexylmethyl)-2,3-dihydroxy-4,4-dimethylpentyl]imidazole-4-propionamide] | 7.42 |
| CC(C)(C)S(=O)(=O)C[C@@H](Cc1ccccc1)C(=O)N[C@@H](Cc1c[nH]cn1)C(=O)N[C@@H](CC1CCCCC1)[C@@H](O)[C@@H](O)C1CCCCC1 [H, (S)-α-[(S)-α-[(t-butylsulphonyl)methyl]hydrocinnamamido]-N-[(1S,2R,3S)-3-cyclohexyl-1-(cyclohexylmethyl)-2,3-dihydroxypropyl]imidazole-4-propionamide] | 8.70 |
| CC(C)[C@H](O)[C@H](O)[C@H](CC1CCCCC1)NC(=O)[C@H](Cc1c[nH]cn1)NC(=O)[C@H](Cc1ccccc1)CS(=O)(=O)C(C)(C)C [G, (S)-α-[(S)-α-[(t-butylsulphonyl)methyl]hydrocinnamamido]-N-[(1S,2R,3S)-1-(cyclohexylmethyl)-2,3-dihydroxy-4-methylpentyl]imidazole-4-propionamide] | 8.70 |
| CC(C)(C)C(=O)C[C@@H](Cc1ccccc1)C(=O)N[C@@H](Cc1c[nH]cn1)C(=O)N[C@@H](CC1CCCCC1)[C@@H](O)[C@@H](O)C1CCCCC1 [B, (S)-N-[(1S,2R,3S)-3-cyclohexyl-1-(cyclohexylmethyl)-2,3-dihydroxypropyl]-α-[(R)-α-(3,3-dimethyl-2-oxobutyl)-hydrocinnamamido]imidazole-4-propionamide] | 9.00 |
| CC(C)(C)S(=O)(=O)C[C@@H](Cc1ccccc1)C(=O)N[C@@H](Cc1c[nH]cn1)C(=O)N[C@@H](CC1CCCCC1)[C@@H](O)[C@@H](O)c1ccccc1 [D, (S)-α-[(S)-α-[(t-butylsulphonyl)methyl]hydrocinnamamido]-N-[(1S,2R,3S)-1-(cyclohexylmethyl)-2,3-dihydroxy-3-phenylpropyl]imidazole-4-propionamide] | 8.15 |
| CCC(CC)C(O)[C@H](O)[C@H](CC1CCCCC1)NC(=O)[C@H](Cc1c[nH]cn1)NC(=O)[C@@H](CC(=O)C(C)(C)C)Cc1ccccc1 (mixture of isomers) [A, (S)-N-[(1S,2R,3RS)-1-(Cyclohexylmethyl)-4-ethyl-2,3-dihydroxyhexyl]-α-[(R)-α-(3,3-dimethyl-2-oxobutyl)hydrocinnamamido]imidazole-4-propionamide] | 7.62 |
| CC(C)(C)S(=O)(=O)C[C@@H](Cc1ccccc1)C(=O)N[C@@H](Cc1c[nH]cn1)C(=O)N[C@@H](CC1CCCCC1)[C@@H](O)[C@H](O)c1ccccc1 [E, (S)-α-[(S)-α-[(t-butylsulphonyl)methyl]hydrocinnamamido]-N-[(1S,2R,3R)-1-(cyclohexylmethyl)-2,3-dihydroxy-3-phenylpropyl]imidazole-4-propionamide] | 6.77 |
| CC(C)[C@H](O)[C@H](O)[C@H](CC1CCCCC1)NC(=O)[C@H](Cc1c[nH]cn1)NC(=O)[C@@H](CC(=O)C(C)(C)C)Cc1ccccc1 [C, (S)-N-[(1S,2R,3S)-1-(cyclohexylmethyl)-2,3-dihydroxy-4-methylpentyl]-α-[(R)-α-(3,3-dimethyl-2-oxobutyl)hydrocinnamamido]imidazole-4-propionamide] | 8.52 |
